Data from paper PMC11444331 (Journal of medicinal chemistry, 2024).
Bridge positions count the residues as written; N and C are the ends. Peptide text beside a SMILES is read from it.

Experiments:
human α7 nAChRs = human α7 nAChRs (Homo sapiens, UniProt P36544); test: cell-based
human α9α10 nAChRs = human α9α10 nAChRs (Homo sapiens, UniProt Q9GZZ6+Q9UGM1); test: cell-based
Chain of human α9α10 nAChRs (Q9UGM1 26-479 limits assumed): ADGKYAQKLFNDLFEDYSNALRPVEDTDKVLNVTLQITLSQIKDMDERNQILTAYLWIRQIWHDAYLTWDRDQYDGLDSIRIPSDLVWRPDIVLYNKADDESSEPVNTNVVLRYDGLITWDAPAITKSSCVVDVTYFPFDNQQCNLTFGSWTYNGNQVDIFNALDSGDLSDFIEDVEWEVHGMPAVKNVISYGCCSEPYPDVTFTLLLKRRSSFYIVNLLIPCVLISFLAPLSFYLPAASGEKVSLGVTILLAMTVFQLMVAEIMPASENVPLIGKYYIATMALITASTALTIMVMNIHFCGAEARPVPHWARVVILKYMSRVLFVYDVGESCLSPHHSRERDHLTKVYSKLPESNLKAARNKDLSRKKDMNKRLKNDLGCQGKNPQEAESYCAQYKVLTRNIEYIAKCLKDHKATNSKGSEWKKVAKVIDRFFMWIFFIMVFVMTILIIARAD
Chain of human α9α10 nAChRs (Q9GZZ6 25-450 limits assumed): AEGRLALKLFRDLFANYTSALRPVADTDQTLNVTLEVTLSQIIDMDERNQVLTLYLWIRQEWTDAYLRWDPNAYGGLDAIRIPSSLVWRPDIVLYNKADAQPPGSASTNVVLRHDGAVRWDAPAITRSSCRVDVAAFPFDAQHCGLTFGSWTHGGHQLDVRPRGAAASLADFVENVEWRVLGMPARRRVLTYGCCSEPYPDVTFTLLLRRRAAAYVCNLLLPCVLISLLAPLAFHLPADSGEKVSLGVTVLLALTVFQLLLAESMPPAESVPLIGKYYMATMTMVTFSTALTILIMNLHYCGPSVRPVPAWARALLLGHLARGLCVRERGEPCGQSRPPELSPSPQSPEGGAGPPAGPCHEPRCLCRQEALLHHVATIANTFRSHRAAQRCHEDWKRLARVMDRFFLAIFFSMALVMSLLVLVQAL

Chain of human α7 nAChRs (P36544 23-502 limits assumed): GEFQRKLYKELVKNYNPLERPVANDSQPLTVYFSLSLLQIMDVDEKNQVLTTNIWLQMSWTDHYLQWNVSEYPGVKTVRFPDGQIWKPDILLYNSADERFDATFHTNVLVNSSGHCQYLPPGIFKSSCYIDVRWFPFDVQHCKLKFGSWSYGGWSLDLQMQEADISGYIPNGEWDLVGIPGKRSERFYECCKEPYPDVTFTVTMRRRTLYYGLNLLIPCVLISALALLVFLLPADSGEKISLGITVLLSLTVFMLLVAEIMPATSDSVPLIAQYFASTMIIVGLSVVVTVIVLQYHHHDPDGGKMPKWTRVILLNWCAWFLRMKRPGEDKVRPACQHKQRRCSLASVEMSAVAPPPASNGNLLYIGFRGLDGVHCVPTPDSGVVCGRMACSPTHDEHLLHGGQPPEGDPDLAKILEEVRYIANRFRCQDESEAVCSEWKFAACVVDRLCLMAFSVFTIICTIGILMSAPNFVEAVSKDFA

With `C[C@@H]1NC(=O)[C@H](CCCNC(=N)N)NC(=O)[C@H](CO)NC(=O)[C@H](CCCNC(=N)N)NC(=O)[C@H](CO)NC(=O)[C@@H]2CSSC[C@H](NC(=O)CN)C(=O)N[C@@H](CSSC[C@@H](C(N)=O)NC(=O)[C@H](CO)NC(=O)[C@H](CO)NC1=O)C(=O)N[C@@H](CO)C(=O)N[C@@H](Cc1c[nH]cn1)C(=O)N1CCC[C@H]1C(=O)N[C@@H](C)C(=O)N2` [conofurin-Delta-SRSRASS] (H-GCCSHPACSRSRASSC-NH2; disulfide 2-8, 3-16) the IC50 (human α7 nAChRs) was 5.4 µM and the IC50 (human α9α10 nAChRs) was > 10 µM.
